According to paper PMC6269716 (2013):

How the values were obtained:
[1] = tested on: CKIT1 (c-kit-1, FRET) (DNA, G4) AGAGGGAGGGCGCTGGGAGGAGGGGCT; experiment: FRET melting; settings: K+ (60 mM); potassium cacodylate pH 7.4; 1 µM compound; 200 nM DNA
[2] = tested on: DK66 (DNA, duplex) CGCGAATTCGCG; experiment: ESI-MS peak intensities; settings: NH4+ (150 mM ammonium acetate), 15% methanol added before injection, 5 µM DNA
[3] = tested on: F21T (HTelo-21, FRET) (DNA, G4) GGGTTAGGGTTAGGGTTAGGG; experiment: FRET melting; settings: K+ (60 mM); potassium cacodylate pH 7.4; 1 µM compound; 200 nM DNA
[4] = tested on: HTelo21 (DNA, G4) GGGTTAGGGTTAGGGTTAGGG; experiment: ESI-MS peak intensities; settings: NH4+ (150 mM ammonium acetate); 15% methanol added before injection; 5 µM DNA; site 1 of 2
[5] = tested on: T Loop (DNA, hairpin, hexaethyleneglycol (HEG) linker between nucleotides 10 and 11 as hairpin loop) TATAGCTATATATAGCTATA; experiment: FRET melting; settings: K+ (60 mM); potassium cacodylate pH 7.4; 1 µM compound; 200 nM DNA
[6] = tested on: BCL2 (FRET) (DNA, G4) GGGCGCGGGAGGAAGGGGGCGGG; experiment: FRET melting; settings: K+ (60 mM); potassium cacodylate pH 7.4; 1 µM compound; 200 nM DNA

ΔTm [1] [°C]	Log K1 ([2]; site 1 of 2)	ΔTm [3] [°C]	Log K1 [4]	ΔTm [5] [°C]	ΔTm [6] [°C]	Log K1 [2]	Structure (SMILES)
1.0 ± 0.1	3.8 ± 0.2	1.3 ± 0.1	4.7 ± 0.1	0.4 ± 0.1	0.7 ± 0.1	–	O=C(CCCCCN1CCCCC1)c1ccc2c(c1)Cc1cc(C(=O)CCCCCN3CCCCC3)ccc1O2
–	3.7 ± 0.1	–	4.4 ± 0.1	–	–	–	O=C(CCCCCN1CCCCC1)c1ccc2oc3ccc(C(=O)CCCCCN4CCCCC4)cc3c(=O)c2c1
–	3.4 ± 0.2	–	4.6 ± 0.1	–	–	–	CN(C)CCCCCC(=O)c1ccc2c(c1)Cc1cc(C(=O)CCCCCN(C)C)ccc1O2
–	3.6 ± 0.1	–	4.7 ± 0.1	–	–	–	CN(C)CCCCOc1ccc2c(=O)c3ccc(OCCCCN(C)C)cc3oc2c1
–	3.3 ± 0.2	–	4.0 ± 0.1	–	–	–	CN(C)CCCCCC(=O)c1ccc2oc3ccc(C(=O)CCCCCN(C)C)cc3c(=O)c2c1
–	3.7 ± 0.1	–	4.4 ± 0.1	–	–	–	CN1CCN(CCCCCC(=O)c2ccc3c(c2)Cc2cc(C(=O)CCCCCN4CCN(C)CC4)ccc2O3)CC1
–	1.8 ± 0.2	–	4.1 ± 0.1	–	–	–	CN1CCN(CCCCCC(=O)c2ccc3oc4ccc(C(=O)CCCCCN5CCN(C)CC5)cc4c(=O)c3c2)CC1
–	3.9 ± 0.1	–	5.8 ± 0.1	–	–	–	O=C(CCCCCN1CCCCC1)c1ccc2c(c1)C(CCCC1c3cc(C(=O)CCCCCN4CCCCC4)ccc3Oc3ccc(C(=O)CCCCCN4CCCCC4)cc31)c1cc(C(=O)CCCCCN3CCCCC3)ccc1O2
–	–	–	4.7 ± 0.1	–	–	3.4 ± 0.1	O=c1c2ccc(OCCCCN3CCCCC3)cc2oc2cc(OCCCCN3CCCCC3)ccc12
–	3.5 ± 0.1	–	4.3 ± 0.1	–	–	–	CN1CCN(CCCCOc2ccc3c(=O)c4ccc(OCCCCN5CCN(C)CC5)cc4oc3c2)CC1
7.9 ± 0.1	3.6 ± 0.3	11.9 ± 0.1	5.2 ± 0.4	2.2 ± 0.1	4.8 ± 0.1	–	CN(C)CCCCCC(=O)c1ccc2c(c1)C(CCCCN(C)C)c1cc(C(=O)CCCCCN(C)C)ccc1O2
